Assay results published in patent US20070254055A1, “Therapeutic Avenanthramide Compounds” (TRUSTEES OF TUFTS COLLEGE, priority 2003, published 2007).

Columns and labels:
[1] = system: human aortic smooth muscle cells (HSMC); experiment: Cell number counting, HSMC; type: cell-based; conditions: 120 μM
Procedure: (§3) HSMC or A10 cells (rat embryonic aortic smooth muscle cell) were seeded into 6-well plate at a density of 0.5×10^4/well. Four hr later 120 μM of avenanthramide were added to each well. At different time points (2d, 3d and 4d) the cells were trypsinzied and the total cell number were counted using a hemocytometer. Trypan blue exclusion test was carried out to determine the cell viability.

[2] = system: human aortic smooth muscle cells (HSMC); experiment: FBS-induced [3H] thymidine incorporation in HSMC; type: cell-based
Source text: Synthetic Av-C was used in this experiment. […] The inhibitory effect of Avenanthramide was concentration-dependent.

NO production of HAEC = experiment: NO production, DAF-2 fluorescence assay, HAEC; type: cell-based, human; conditions: 120 μM, 24 h
Source text: (§1) In addition to its vasodilating feature, NO has antiatherosclerotic properties, such as prevention of platelet aggregation, leukocyte adhesion, smooth muscle cell proliferation, and the expression of genes involved in atherogenesis. In this study, the human aortic smooth muscle cells (HSMC) and human aortic endothelia cells (HEC) were used to determine if avenanthramides can influence the NO production level. Synthetic Av-C was used in this experiment. The quantification of NO production was performed by the 4,5 diaminofluorescein (DAF-2) fluorescence assay. Briefly, cells were seeded into 24-well plate and let them grow to 90% confluent condition. The cells were pretreated with different concentrations of Avenanthramide for 24 h. The culture medium was then changed to PBS containing 100 μM L-arginine, 1 μM bradykinin and L-NAME. Then 0.1 μM of DAF-2 was added to each well. After another 2 h of incubation, 200 μL of supernatants were transferred to black microplates and the fluorescence was measured with a fluorescence microplate reader calibrated for excitation at 485 nm and emission at 538 nm.

A10 SMC = experiment: Cell cycle distribution by flow cytometry, A10 cells; type: cell-based, rat; conditions: 120 μM, 48 h
Procedure: At 50% confluence (exponentially growing phase), A10 cells were seeded into 100 mm culture dishes and were treated with different concentrations of Avn for 48 h. Cells were then harvested by trypsin/EDTA treatment, washed with PBS and fixed with 70% ethanol at 4° C. for 1 hr. Prior to analysis, cells were washed again with PBS and stained with 1.0 mL of propidium iodide (PI) solution containing 25 μg/mL PI and 10 μg/mL RNase in PBS at 4° C. for 30 min in the dark. Cell cycle distributions were then analyzed by flow cytometry using the fluorescence-activated cell sorting (FACS) analysis. To calculate percentage of cells in respective phases of the cell cycle the DNA content frequency histograms were deconvoluted. Based on the DNA content, the cell cycle can be distinguished from G1 to S and G2-M phase.

VCAM-1 = experiment: HASMC expression of VCAM-1; type: cell-based, human
NO production of HSMC = experiment: NO production, DAF-2 fluorescence assay, HSMC; type: cell-based, human
Source text: as §1

[3] = system: A10 cells (rat embryonic aortic smooth muscle cell); experiment: Cell number counting, A10 cells; type: cell-based
Procedure: as §3

U937 cells = experiment: Hydrogen peroxide-induced ROS production in U937 cells (DCHF); type: cell-based, human; conditions: 18 h pretreatment
Procedure: Pretreatment of H2O2-stimulated U937 cells with 1, 5, and 10 μM of Avn reduced the ROS production by 22, 50, and 76%, respectively, indicating the inhibitory effect is dose-dependent.

pRb = pRb phosphorylation Western blot, FBS-stimulated A10 cells; type: cell-based, rat; conditions: 10% FBS, 20 h
Procedure: (§2) Protein from 5×10^4 cells was subjected to electrophoresis on 7.5-10% SDS-polyacrylamide gels and electro-transferred to nirocellulose membrane. Nonspecific binding was blocked by incubating with Tris-buffered saline (TBS) [137 mM NaCl, and 15 mM Tris-HCl (pH 7.6)] containing 5% non-fat milk (w/v) for 1 h at room temperature and then probed with primary antibody against p53, p21, p27, cyclin D1 and pRb overnight. After washing in TBS-Tween 20 buffer (0.075% v/v), the membranes were incubated with horseradish peroxidase-conjugated anti-IgG antibody. Proteins bound to the primary antibodies were detected with ECL detection reagents.
Based on the above findings that treatment of A10 cells with Avn arrests the cell cycle at G1 phase, the effect of Avn treatment on cell cycle regulatory molecules involved in G1 phase of the cell cycle progression were analyzed. pRB, the product of the retinoblastoma tumor suppressor gene, is a major cell cycle regulator and its hyperphosphorylation (ppRb) is necessary for G1-S phase transition. To elucidate the mechanism by which Avn inhibits the cell cycle progression, the changes in pRB phosphorylation status were measured using anti-phospho-pRb specific antibody. FIG. 11 is a Western blot showing the effects of Avn on pRB phosphorylation. Av inhibits pRb phosphorylation in A10 cells stimulated with FBS. […]

p27Kip1 = p27Kip1 expression Western blot, A10 cells; type: cell-based, rat; conditions: 10% FBS, 20 h
Procedure: as §2
Cyclin-dependent kinase (cdk) inhibitors play important roles in cell cycle progression. P21cip1 is the main target of p53 medicated cell cycle inhibition. […] The effect of Avn on this CDK inhibitor p21cip1 protein expression was determined by Western blotting. A10 cells were synchronized by growning in FBS-free medium for 24 h. The cells were then stimulated with 10% FBS in the absence or presence of different concentrations of substantially purified Avn-C. After 20 h, total cell lysates were prepared and subjected to SDS-PAGE followed by Western blot analysis to detect p21cip and p27kip. β-Actin expression was used as loading control. […]

Question: Which results are given for `O=C(/C=C/c1ccc(O)c(O)c1)Nc1ccc(O)cc1C(=O)O` [Avn-C, Avenanthramide C]?
Answer: inhibition of cell growth ([1]; 4 days): more than 50%; doubling time ([1]; HSMC): more than 48 hr; inhibition of cell proliferation (serum-induced DNA synthesis) ([2]; 120 μM, 10% FBS, 24 h): more than 50%; IC50 ([2]; [3H] thymidine incorporation and cell number counting, read-out: IC50, serum-induced HASMC proliferation): ~50 µM; increase in NO production compared with control (NO production of HAEC): 8.8 folds; population of cells in G0/G1-phase (A10 SMC; growing cells (control 49.7%)): 66.9%; population of cells in S-phase (A10 SMC; growing cells (control about 40%)): 25.7%; HASMC expression of VCAM-1 (VCAM-1): not affected; increase of NO production (NO production of HSMC; 80 μM, HASMC): 2.1 fold; increase in NO production compared with control (NO production of HSMC; 120 μM, 24 h, HSMC): 3.0 folds; reduction in cell proliferation ([3]; 120 μM): 50%; doubling time ([3]; A10, 120 μM): more than 48 hr; reduction of H2O2-induced ROS production (U937 cells; 1 μM): 22%; reduction of H2O2-induced ROS production (U937 cells; 5 μM): 50%; reduction of H2O2-induced ROS production (U937 cells; 10 μM): 76%; expression of the total amount of pRb (pRb): did not change; serum-induced pRB phosphorylation (pRb; different concentrations): dose-dependently inhibited; p27Kip1 protein expression (p27Kip1): no significant effect
